Measured values published in PubChem BioAssay (NCI).
Where “and” joins values, the source holds several entries; their conditions need not be identical. Equal entries are not always repeated.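 Cells were grown in 96-well plates and exposed to each compound for 48 hours at five concentrations; endpoints were interpolated linearly between bracketing concentrations, or set to the highest concentration if not reached. The concentration for 50% growth inhibition is given as GI50. TGI: total growth inhibition.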

How the values were obtained:
Experiment in all cases: NCI-60 cell line screen, 48 h
UO-31 renal = test system: UO-31 renal
T-47D breast = test system: T-47D breast
NCI/ADR-RES ovarian = test system: NCI/ADR-RES ovarian
OVCAR-4 ovarian = test system: OVCAR-4 ovarian
M14 melanoma = test system: M14 melanoma
NCI-H23 lung = test system: NCI-H23 lung
KM12 colon = test system: KM12 colon
OVCAR-8 ovarian = test system: OVCAR-8 ovarian
HOP-92 NSCLC = test system: HOP-92 NSCLC
HOP-62 NSCLC = test system: HOP-62 NSCLC
HCT-116 colon = test system: HCT-116 colon
HCC-2998 colon = test system: HCC-2998 colon
RXF 393 renal = test system: RXF 393 renal

SMILES | TGI (UO-31 renal) [µM] | TGI (T-47D breast) [µM] | TGI (NCI/ADR-RES ovarian) | TGI (OVCAR-4 ovarian) | TGI (M14 melanoma) [µM] | TGI (NCI-H23 lung) | TGI (KM12 colon) | TGI (OVCAR-8 ovarian) [µM] | TGI (HOP-92 NSCLC) [µM] | TGI (HOP-62 NSCLC) | TGI (HCT-116 colon) [µM] | TGI (HCC-2998 colon) [µM] | TGI (RXF 393 renal) | GI50 (NCI/ADR-RES ovarian) | GI50 (OVCAR-4 ovarian) | GI50 (NCI-H23 lung) | GI50 (KM12 colon) | GI50 (RXF 393 renal) | GI50 (OVCAR-8 ovarian) [µM] | GI50 (HOP-62 NSCLC) [µM]
Cn1c2ccccc2c2c(-c3ccccc3)[n+]3ccccc3nc21 | > 100 | > 100 | > 100 µM | > 100 µM | 34.4 | 54.1 µM | 32.7 µM | > 100 | 39.7 | 68 µM |  |  |  |  |  |  |  |  |  | 
O=C(O)CNC(=O)CO/N=C1/C(c2c(O)[nH]c3ccccc23)=Nc2ccccc21 | > 100 | > 100 | > 100 µM | > 100 µM | > 100 | > 100 µM | > 100 µM | > 100 | > 100 | 87.3 µM | > 100 | > 100 | > 100 µM |  |  |  |  |  |  | 
CN(C)c1ccc(/C=C2/SC(=S)NC2=O)cc1 | > 100 | > 100 | > 100 µM | > 100 µM | > 100 | > 100 µM | > 100 µM | > 100 | > 100 | > 100 µM | > 100 | > 100 | > 100 µM |  |  |  |  |  |  | 
C=CCc1cc(-c2cc(CC=C)c(O)c(CN(CCCl)CCCl)c2)cc(CN(CCCl)CCCl)c1O | 32.1 | 24.8 | 78.4 µM | 52.6 µM | 38.3 | 22.1 µM | 36.7 µM | 74.1 | 32.2 | 43.5 µM | 25.3 | 29.2 | 35.8 µM |  |  |  |  |  |  | 
COc1cc(O)cc(/C=C/c2ccc(O)cc2)c1 | > 100 | > 100 | > 100 µM | > 100 µM | > 100 | 96.1 µM | 93.7 µM | > 100 | 91.9 | > 100 µM | > 100 |  | > 100 µM |  |  |  |  |  |  | 
O=C1/C(=C/C=C/c2ccccc2)N=C(c2ccccc2)N1C1Nc2cc3c(cc2S1)NC(N1C(=O)/C(=C/C=C/c2ccccc2)N=C1c1ccccc1)S3 (stereo not drawn) | > 100 | > 100 | > 100 µM | > 100 µM | > 100 | > 100 µM | > 100 µM | > 100 | 85.2 | > 100 µM | > 100 | 37.2 | > 100 µM |  |  |  |  |  |  | 
CN1C(=O)c2ccccc2NC(=O)c2cnn(C)c21 | > 100 |  | > 100 µM | > 100 µM |  | > 100 µM | > 100 µM | > 100 | > 100 | > 100 µM | > 57.4 | > 100 | > 100 µM |  |  |  |  |  |  | 
C[n+]1c2ccccc2c(CNc2ccc(S(=O)(=O)N=C(N)N)cc2)c2ccccc21 | 45.5 |  |  | > 100 µM | 28 | 33.3 µM | 27.7 µM | 55.4 | 54.3 | 40 µM | 27.2 | 39.2 | 34.1 µM |  |  |  |  |  |  | 
CC1=NN(c2cccc(Cl)c2)C2(SCC(=O)N2c2nc3ccccc3s2)/C1=C\c1ccc(Cl)cc1 (stereo not drawn) | 29.5 | > 100 | > 100 µM | 55.1 µM | 43.5 | 41.5 µM | 34.8 µM | 40.7 | 28.3 | 35.3 µM | 31.3 | 27.5 | 38.4 µM |  |  |  |  |  |  | 
O=C(O)CCCCCCC[C@@H]1S[C@H]1CCCCCCO | > 100 |  | > 100 µM | > 100 µM |  | > 100 µM | > 100 µM | > 100 | > 94.4 | > 100 µM | > 100 | > 100 | > 100 µM |  |  |  |  |  |  | 
Nc1ccccc1CCCC(=O)O | > 100 | > 100 | > 100 µM | > 100 µM | > 100 | > 100 µM | > 100 µM | > 100 | > 100 | > 100 µM | > 100 | > 100 | > 100 µM |  |  |  |  |  |  | 
CC1=C(C)C(=O)O[C@@H]([C@](C)(O)[C@]2(O)CC[C@@]3(O)[C@@H]4C[C@H]5O[C@]56[C@@H](O)C=CC(=O)[C@]6(C)[C@H]4CC[C@]23C)C1 | 6.36 |  | 131 µM and 57.5 µM | 3.08 µM and 1 µM |  | 4.63 µM and 1.29 µM | 6.73 µM and 4.57 µM | 4.2 | 0.345 | 11.4 µM and 14.6 µM | 2.88 | 5.76 | 0.575 µM and 0.516 µM | 9.65 µM and 6.24 µM | 0.0878 µM and 0.43 µM | 0.38 µM and 0.205 µM | 0.95 µM and 0.637 µM | 0.21 µM and 0.0646 µM | 0.155 | 1.28
O=c1[nH]c(Nc2ccc(F)c(Cl)c2)nc2nc[nH]c12 | > 100 | > 100 | > 100 µM | > 100 µM | > 100 | > 100 µM | > 100 µM | > 100 | > 100 | > 100 µM | > 100 | > 100 |  |  |  |  |  |  |  | 
S=C1SC(=Nc2ccccc2)C(=Nc2ccccc2)N1c1ccccc1 | > 100 | > 100 | > 100 µM | > 100 µM | > 100 | > 100 µM | > 100 µM | > 100 |  | > 100 µM | > 100 | > 100 | > 100 µM |  |  |  |  |  |  | 
CC(C)=CC1C(COC(=O)c2cc3c(cc2Cl)OCO3)C1(C)C (stereo not drawn) | > 100 | > 100 | > 100 µM | > 100 µM | > 100 | > 100 µM | > 100 µM | > 100 | 78 | > 100 µM | > 100 |  | 48.9 µM |  |  |  |  |  |  | 
Cc1cc(NC(=S)Nc2ccccc2)c(NC(=S)Nc2ccccc2)cc1C | > 74.6 |  | 28.9 µM | > 100 µM |  | > 95.1 µM | > 100 µM | > 100 | > 100 | > 100 µM | > 100 | > 57.6 | > 80.8 µM |  |  |  |  |  |  | 
COCc1nc2c(OC)cc(-c3nc4nc(N5CCN(C)CC5)ccc4[nH]3)c(OC)c2[nH]1 | > 100 | > 100 | > 100 µM | > 100 µM | 42.4 | > 100 µM | > 100 µM | > 100 | > 100 | > 100 µM | > 100 | > 100 | > 100 µM |  |  |  |  |  |  | 
N#C[S-].[Nd+3].c1cnc2c(c1)ccc1cccnc12.c1cnc2c(c1)ccc1cccnc12.c1cnc2c(c1)ccc1cccnc12 | 11.2 |  |  | 14.4 µM | 6.17 | 23.3 µM | 22.6 µM |  | 17.2 | 20.6 µM | 6.43 | 20 |  |  |  |  |  |  |  | 
O=C1C=CC2(O[C@H](c3ccccc3)[C@@H](c3ccccc3)O2)C(SC(=O)c2ccccc2)C1 (stereo partly drawn) | 2.66 | 7.89 | 3.22 µM | 5.13 µM | 3.07 | 3.82 µM | 6.87 µM | 0.516 |  | 3.31 µM | 1.53 |  | 0.726 µM |  |  |  |  |  |  | 
CCC(=O)Nc1ccc(N=Cc2cccc(Oc3ccccc3)c2)cc1 | > 100 | > 100 | > 100 µM | > 100 µM | > 100 | > 100 µM | > 100 µM | 49.1 | > 100 | > 100 µM | > 100 |  | > 100 µM |  |  |  |  |  |  | 
